In US11299501B2 (BRISTOL-MYERS SQUIBB COMPANY, priority 2017, dated 2022) one finds IC50 data, which are given here for 12 compounds.

Holding throughout (assay type): cell-based
One assay has as its target T1, human TLR7 (Homo sapiens, UniProt Q9NYK1).
T1 construct: host or cells: HEK-Blue cells
T1 sequence (Q9NYK1 27-1049): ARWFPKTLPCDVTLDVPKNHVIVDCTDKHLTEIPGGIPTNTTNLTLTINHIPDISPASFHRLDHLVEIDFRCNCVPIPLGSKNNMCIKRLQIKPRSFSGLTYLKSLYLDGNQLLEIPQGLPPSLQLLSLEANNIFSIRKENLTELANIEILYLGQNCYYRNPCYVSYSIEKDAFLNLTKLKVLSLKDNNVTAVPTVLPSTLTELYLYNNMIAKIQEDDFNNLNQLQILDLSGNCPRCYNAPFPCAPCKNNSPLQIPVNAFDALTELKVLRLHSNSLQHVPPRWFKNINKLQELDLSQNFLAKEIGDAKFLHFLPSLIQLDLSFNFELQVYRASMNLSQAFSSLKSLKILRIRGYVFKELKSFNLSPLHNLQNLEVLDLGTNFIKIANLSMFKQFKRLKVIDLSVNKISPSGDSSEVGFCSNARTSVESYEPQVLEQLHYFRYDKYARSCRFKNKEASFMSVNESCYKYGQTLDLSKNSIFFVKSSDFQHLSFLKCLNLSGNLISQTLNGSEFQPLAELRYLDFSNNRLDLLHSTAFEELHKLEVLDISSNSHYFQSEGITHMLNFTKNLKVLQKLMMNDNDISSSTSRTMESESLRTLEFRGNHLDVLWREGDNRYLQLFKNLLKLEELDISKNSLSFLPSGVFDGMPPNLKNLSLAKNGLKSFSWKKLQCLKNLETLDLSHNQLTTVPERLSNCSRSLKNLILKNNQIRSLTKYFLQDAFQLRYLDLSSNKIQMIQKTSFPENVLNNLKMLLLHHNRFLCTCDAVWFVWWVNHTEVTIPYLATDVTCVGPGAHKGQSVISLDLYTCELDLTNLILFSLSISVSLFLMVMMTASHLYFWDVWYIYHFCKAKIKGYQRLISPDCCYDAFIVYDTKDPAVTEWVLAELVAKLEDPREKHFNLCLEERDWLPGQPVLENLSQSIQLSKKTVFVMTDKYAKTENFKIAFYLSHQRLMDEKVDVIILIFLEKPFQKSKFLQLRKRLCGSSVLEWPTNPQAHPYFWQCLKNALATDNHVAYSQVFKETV
Kind of assay: TLR7 inhibition reporter assay (HEK-Blue SEAP). To be noted: cells overexpressing human TLR7, SEAP reporter, stimulated with gardiquimod 7.5 μM, 22 hour incubation. The essentials: (§1)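 HEK-Blue cells expressing human TLR7, TLR8 or TLR9 with NF-κB/AP-1-driven SEAP reporter pre-treated 30 min at room temperature with compound (0.05 nM–50 μM), then stimulated with gardiquimod 7.5 μM (TLR7), R848 15.9 μM (TLR8) or ODN2006 5 nM (TLR9). SEAP read after 22 h at 37 °C; % inhibition relative to agonist+DMSO and reference-inhibitor wells.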

The target in a further assay is T2, human TLR8 (Homo sapiens, UniProt Q9NR97).
T2 construct: host or cells: HEK-Blue cells
T2 sequence (Q9NR97 27-1041): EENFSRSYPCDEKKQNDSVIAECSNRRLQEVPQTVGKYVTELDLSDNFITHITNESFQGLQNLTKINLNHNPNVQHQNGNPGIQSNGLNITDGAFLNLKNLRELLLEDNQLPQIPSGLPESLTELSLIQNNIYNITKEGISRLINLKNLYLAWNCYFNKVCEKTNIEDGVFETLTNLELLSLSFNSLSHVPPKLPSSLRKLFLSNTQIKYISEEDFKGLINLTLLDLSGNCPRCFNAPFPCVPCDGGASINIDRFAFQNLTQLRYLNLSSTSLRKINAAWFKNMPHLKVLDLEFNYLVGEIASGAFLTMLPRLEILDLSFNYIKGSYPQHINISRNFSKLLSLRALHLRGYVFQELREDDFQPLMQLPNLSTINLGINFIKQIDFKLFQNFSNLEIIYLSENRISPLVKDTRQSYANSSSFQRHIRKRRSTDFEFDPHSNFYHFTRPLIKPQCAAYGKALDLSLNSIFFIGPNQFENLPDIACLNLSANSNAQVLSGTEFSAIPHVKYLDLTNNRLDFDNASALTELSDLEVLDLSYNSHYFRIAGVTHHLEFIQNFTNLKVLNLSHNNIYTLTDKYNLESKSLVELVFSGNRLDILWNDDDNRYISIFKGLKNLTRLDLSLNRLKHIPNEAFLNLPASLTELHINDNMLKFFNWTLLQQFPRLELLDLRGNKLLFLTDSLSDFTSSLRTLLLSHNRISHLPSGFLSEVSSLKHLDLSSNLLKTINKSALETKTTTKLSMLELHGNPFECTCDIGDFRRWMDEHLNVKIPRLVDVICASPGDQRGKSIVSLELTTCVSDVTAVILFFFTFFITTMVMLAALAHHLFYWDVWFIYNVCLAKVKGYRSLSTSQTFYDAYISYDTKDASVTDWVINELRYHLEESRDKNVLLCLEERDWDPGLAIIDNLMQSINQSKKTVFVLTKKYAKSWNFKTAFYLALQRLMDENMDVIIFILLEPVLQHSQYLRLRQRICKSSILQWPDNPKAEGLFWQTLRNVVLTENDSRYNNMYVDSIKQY
Kind of assay: TLR8 inhibition reporter assay (HEK-Blue SEAP). Particulars: cells overexpressing human TLR8, SEAP reporter, stimulated with R848 15.9 μM, 22 hour incubation. A digest of the protocol:
as §1
On the technique in general: Reporter assays use an easily measured gene product as a stand-in for the process of interest.

For another assay, the target named is T3, human TLR9 (Homo sapiens, UniProt Q9NR96).
T3 construct: host or cells: HEK-Blue cells
T3 sequence (Q9NR96 26-1032): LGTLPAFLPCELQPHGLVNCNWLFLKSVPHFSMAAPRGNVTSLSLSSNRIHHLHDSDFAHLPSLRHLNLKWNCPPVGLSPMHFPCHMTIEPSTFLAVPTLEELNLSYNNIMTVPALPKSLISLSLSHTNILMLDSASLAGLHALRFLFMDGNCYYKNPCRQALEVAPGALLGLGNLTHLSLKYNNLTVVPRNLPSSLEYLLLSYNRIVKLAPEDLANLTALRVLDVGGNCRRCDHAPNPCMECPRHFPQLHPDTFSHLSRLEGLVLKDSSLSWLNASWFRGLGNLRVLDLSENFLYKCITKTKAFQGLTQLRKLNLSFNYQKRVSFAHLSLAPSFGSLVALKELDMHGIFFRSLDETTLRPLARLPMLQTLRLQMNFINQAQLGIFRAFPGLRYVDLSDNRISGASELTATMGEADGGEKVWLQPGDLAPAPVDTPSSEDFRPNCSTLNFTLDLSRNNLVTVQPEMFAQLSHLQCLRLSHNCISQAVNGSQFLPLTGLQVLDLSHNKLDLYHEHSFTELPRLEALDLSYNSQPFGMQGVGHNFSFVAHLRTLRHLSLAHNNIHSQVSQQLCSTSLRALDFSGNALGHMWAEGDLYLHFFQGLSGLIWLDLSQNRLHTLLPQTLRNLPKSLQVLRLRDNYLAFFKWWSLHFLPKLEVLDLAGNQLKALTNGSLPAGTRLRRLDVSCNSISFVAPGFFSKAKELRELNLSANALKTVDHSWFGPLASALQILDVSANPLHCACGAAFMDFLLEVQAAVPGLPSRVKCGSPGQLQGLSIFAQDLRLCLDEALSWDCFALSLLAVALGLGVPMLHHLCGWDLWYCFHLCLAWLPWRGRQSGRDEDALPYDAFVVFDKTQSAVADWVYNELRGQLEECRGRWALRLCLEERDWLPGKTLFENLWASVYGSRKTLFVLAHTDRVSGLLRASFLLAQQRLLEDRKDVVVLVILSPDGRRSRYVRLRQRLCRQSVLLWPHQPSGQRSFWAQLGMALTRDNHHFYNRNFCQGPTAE
Kind of assay: TLR9 inhibition reporter assay (HEK-Blue SEAP). Particulars: cells overexpressing human TLR9, SEAP reporter, stimulated with ODN2006 5 nM, 22 hour incubation. The essentials:
as §1

pIC50: −log10 of the molar value.

As a reminder, the pIC50 is the negative decadic logarithm of the IC50, by convention in mol/L. Read a high pIC50 as a small IC50.

Turning to `Cc1cc(-c2[nH]c3cnc(C4CCN(C)CC4)nc3c2C(C)C)cn(C)c1=O` [Example 34, 5-(7-isopropyl-2-(1-methylpiperidin-4-yl)-5H-pyrrolo[3,2-d]pyrimidin-6-yl)-1,3-dimethylpyridin-2(1H)-one], the pIC50 against human TLR7 is above 7.00; on human TLR8, above 7.00; against human TLR9, 4.30 to 6.00.

For the compound `CNC(=O)CN1CCC(c2ncc3[nH]c(-c4cc(OC)c5ncnn5c4)c(C(C)C)c3n2)CC1` [Example 35, 2-(4-(7-isopropyl-6-(8-methoxy-[1,2,4]triazolo[1,5-a]pyridin-6-yl)-5H-pyrrolo[3,2-d]pyritnidin-2-yl)piperidin-1-yl)-N-methylacetamide], the values for the pIC50 at human TLR7, against human TLR8 and at human TLR9 were above 7.00, above 7.00 and below 4.30, respectively.

With `CCc1c(-c2ccc(OC)c(OC)c2)[nH]c2cnc(-c3nnc(C[C@H]4CCCCN4)o3)nc12` [Example 36, (R)-2-(6-(3,4-dimethoxyphenyl)-7-ethyl-5H-pyrrolo[3,2-d]pyrhnidin-2-yl)-5-(piperidin-2-ylmethyl)-1,3,4-oxadiazole], the pIC50 against human TLR7 is 4.30 to 6.00; at human TLR8 it was 6.00 to 7.00; at human TLR9 it was 4.30 to 6.00.

Regarding `CCc1c(-c2ccc(OC)c(OC)c2)[nH]c2cnc(-c3nnc(CCCN(C)C)o3)nc12` [Example 37, 3-(5-(6-(3,4-dimethoxyphenyl)-7-ethyl-5H-pyrrolo[3,2-d]pyrimidin-2-yl)-1,3,4-oxadiazol-2-yl)-N,N-dimethylpropan-1-amine], the results for the pIC50 against human TLR7, at human TLR8 and at human TLR9 were 4.30 to 6.00, 6.00 to 7.00 and 4.30 to 6.00, respectively.

Regarding `CCc1c(-c2ccc(OC)c(OC)c2)[nH]c2cnc(-c3nnc(CCNC)o3)nc12` [Example 38, 2-(5-(6-(3,4-dimethoxyphenyl)-7-ethyl-5H-pyrrolo[3,2-d]pyrimidin-2-yl)-1,3,4-oxadiazol-2-yl)-N-methylethan-1-amine], the pIC50 on human TLR7 is 4.30 to 6.00; at human TLR8, 6.00 to 7.00; against human TLR9, 4.30 to 6.00.

As for `CCc1c(-c2ccc(OC)c(OC)c2)[nH]c2cnc(-c3nnc(C(C)(C)N)o3)nc12` [Example 39, 2-(5-(6-(3,4-dimethoxyphenyl)-7-ethyl-5H-pyrrolo[3,2-d]pyrimidin-2-yl)-1,3,4-oxadiazol-2-yl)propan-2-amine], the negative logarithm of the IC50 (pIC50) against human TLR7 was 4.30 to 6.00; against human TLR8 it was 4.30 to 6.00; on human TLR9 it was below 4.30.

For the compound `CCc1c(-c2ccc(OC)c(OC)c2)[nH]c2cnc(-c3nnc([C@H]4CCCNC4)o3)nc12` [Example 40, (S)-2-(6-(3,4-dimethoxyphenyl)-7-ethyl-5H-pyrrolo[3,2-d]pyrimidin-2-yl)-5-(piperidin-3-yl)-1,3,4-oxadiazole], the negative logarithm of the IC50 (pIC50) on human TLR7, at human TLR8 and on human TLR9 was 6.00 to 7.00 each time.

Turning to `CCc1c(-c2ccc(OC)c(OC)c2)[nH]c2cnc(-c3nnc([C@@H]4CCNC4)o3)nc12` [Example 41, (R)-2-(6-(3,4-dimethoxyphenyl)-7-ethyl-5H-pyrrolo[3,2-d]pyrimidin-2-yl)-5-(pyrrolidin-3-yl)-1,3,4-oxadiazole], the pIC50 at human TLR7, against human TLR8 and against human TLR9 was 4.30 to 6.00 each time.

As for `CCc1c(-c2ccc(OC)c(OC)c2)[nH]c2cnc(-c3nnc(CNC)o3)nc12` [Example 42, 1-(5-(6-(3,4-dimethoxyphenyl)-7-ethyl-5H-pyrrolo[3,2-d]pyrimidin-2-yl)-1,3,4-oxadiazol-2-yl)-N-methylmethanamine], the pIC50 is 4.30 to 6.00 on human TLR7, 6.00 to 7.00 at human TLR8 and 4.30 to 6.00 at human TLR9.

Turning to `CCc1c(-c2ccc(OC)c(OC)c2)[nH]c2cnc(-c3nnc([C@@H]4CCCNC4)o3)nc12` [Example 43, (R)-2-(6-(3,4-dimethoxyphenyl)-7-ethyl-5H-pyrrolo[3,2-d]pyrimidin-2-yl)-5-(piperidin-3-yl)-1,3,4-oxadiazole], the negative logarithm of the IC50 (pIC50) on human TLR7 was 4.30 to 6.00; on human TLR8, 6.00 to 7.00; on human TLR9, 4.30 to 6.00.

For `CCc1c(-c2ccc(OC)c(OC)c2)[nH]c2cnc(-c3nnc([C@H]4CCNC4)o3)nc12` [Example 44, (S)-2-(6-(3,4-dimethoxyphenyl)-7-ethyl-5H-pyrrolo[3,2-d]pyrimidin-2-yl)-5-(pyrrolidin-3-yl)-1,3,4-oxadiazole], the pIC50 at human TLR7, on human TLR8 and against human TLR9 was 4.30 to 6.00 throughout.

For `CCc1c(-c2ccc(OC)c(OC)c2)[nH]c2cnc(-c3nnc(C[C@@H]4CCCN4)o3)nc12` [Example 45, (S)-2-(6-(3,4-dimethoxyphenyl)-7-ethyl-5H-pyrroIo[3,2-d]pyrimidin-2-yl)-5-(pyrrolidin-2-ylmethyl)-1,3,4-oxadiazole], the pIC50 at human TLR7, against human TLR8 and at human TLR9 was 4.30 to 6.00 throughout.
